Reference: a melting point compilation (Tetko et al.; mined from patent text by program, amines drawn as free bases though some values may be those of a salt)

Row | SMILES | melting point [°C]
1 | CCOC(=O)CN1CCc2c(sc(N)c2C(=O)c2ccc(Cl)cc2)C1 | 105 to 106
2 | CC(C)C(c1ccc(N)cc1)n1cncn1 (centres undefined) | 118
3 | N=C(NO)c1ccc2[nH]cc(CCN3C(=O)c4ccccc4C3=O)c2c1 | 168 to 170
4 | CC(Cc1ccc(OCc2ccccc2)cc1)NCC(O)c1cccc(Cl)c1 (centres undefined) | 95 to 99
5 | CCCC1(CCC)Oc2c(ccc(O)c2C(C)=O)-c2ccccc21 | 83 to 83.5
6 | Cc1c(O)cccc1C(=O)NC(Cc1ccccc1)C(O)C(=O)N1CSC(C)(C)C1C(=O)NC1CCCc2ccccc21 (centres undefined) | 125 to 126
7 | O=C(NC12CC3CC(CC(C3)C1)C2)OCc1cccs1 | 66 to 68
8 | COC(=O)C(Cl)Cc1ccc(O)cc1 (centres undefined) | 57 to 59
9 | OCC1OC(n2cnc3c2ncn2ccnc32)CC1O (centres undefined) | 138 to 141
10 | N#Cc1ccc2c(c1)NC(=O)C(O)C2 (centres undefined) | > 250
11 | O=C1C(c2c[nH]c3ccccc23)=C(c2c[nH]c3ccccc23)C(=O)N1c1ccccc1 | > 290
12 | COCOc1ccc(-c2ncc3ccc(-c4csc(CN5CCCCC5)c4)nc3n2)cc1 | > 268
13 | CCc1nc2c(o1)C(=O)C(C)=C(NCCN(C)C)C2=O | 135
14 | CC(=O)Nc1ccc2c(c1)C(=O)CC2 | 176 to 180
15 | O=c1cc(-c2ccc([N+](=O)[O-])cc2)oc2ncccc12 | 261 to 263
16 | CNCCc1[nH]c2ccccc2c1-c1ccccc1 | 148 to 151
17 | CC1=NC(NC(=O)Nc2cccc(Cl)c2)C(=O)N(CC(=O)N2CC3CCC(CC3)C2)c2c(C)cccc21 (centres undefined) | 181 to 185
18 | CC(=O)Nc1ccc(NCC(=O)C23CC4CC(CC(C4)C2)C3)cc1 | 156 to 158
19 | C=CCNc1nc(N(CC=C)CC=C)nc2ccc([N+](=O)[O-])cc12 | 167 to 168

Row | SMILES | melting point [°C]
20 | O=c1[nH]ncc(NCCN2CCC(c3noc4cc(F)ccc34)CC2)c1Cl | 229 to 231
21 | NC(=O)c1nc(-c2ccncc2)nc2c1NC(=O)CN2c1ccccc1 | 298 to 304
22 | Cc1nc2c(c3c1[nH]c1ccccc13)CCC(C)(C)C2 | 241 to 243
23 | COc1ccc(Oc2cccc(C3C4=C(CC(C)(C)CC4=O)NC4=C3C(=O)CC(C)(C)C4)c2)cc1 | 210 to 212
24 | CN(CCCNc1ncc(Cc2ccc(Cl)cc2)c(=O)[nH]1)c1ccccn1 | 65
25 | Clc1ccc(C2CN3C(=N2)Sc2ccccc23)cc1 (centres undefined) | 143
26 | N#Cc1ccc2c(c1)C(=C(Cl)Cl)OC(=C(Cl)Cl)O2 | 167 to 168
27 | CC(C)n1nc(-c2c(-c3ccccc3)nc(N)nc2N(C)C)ccc1=O | 293 to 296
28 | CC(=O)Nc1ncc(SC#N)s1 | 212
29 | c1ccc(CNc2nc3cc(-c4ccccc4)nnc3c3ccccc23)cc1 | 207 to 209
30 | Cc1cnc(-c2ncn3c2[C@@H]2CCCN2C(=O)c2c(Cl)cccc2-3)o1 | 228 to 230
31 | Cc1ccccc1-c1ccc(C(=O)N2Cc3ccc(C(=O)NCc4cccnc4)n3Cc3ccccc32)cc1 | 176 to 177
32 | N#CCCNC(=O)C1CC(CF)(CF)Oc2ccc([N+](=O)[O-])cc21 (centres undefined) | 137 to 138
33 | COc1c(-c2ccccc2)c(C(=O)c2ccc(O)c(Br)c2)n2ccccc12 | 205
34 | CC(C)(Cc1c[nH]c2ccc(Br)cc12)[N+](=O)[O-] | 106 to 109
35 | O=C(Nc1ccc(N2C[C@@H]3C[C@H]2CO3)c(F)c1)OCc1ccccc1 | 120 to 121
36 | CNC(=O)/C=C/c1cccc(Br)c1 | 147 to 148
37 | OCCc1c2ccccc2cc2ccccc12 | 85 to 87
38 | O=C1C2CCN(CC2)C1CN1CCCCC1 (centres undefined) | 34 to 37

Row | SMILES | melting point [°C]
39 | CCCSc1sc(C(=O)N2CCCC2)c2c1C(=O)CC(C)(C)C2 | 117 to 119
40 | CCCCCCN(C(=O)C(C)C)c1sc(CC)cc1C(=O)O | 98 to 101
41 | O=C(O)C1Cc2ccccc2C1 | 130
42 | CC(C)(C)OC(=O)Nc1ccc(Br)cc1 | 101 to 103
43 | O=[N+]([O-])C1(Cl)C=CC(S(=O)c2ccc(Br)cc2)=CC1 (centres undefined) | 138 to 140
44 | CC1CCC(NC(=O)NS(=O)(=O)c2ccc(CCNC(=O)N3CCCCC3=O)cc2)C1 (centres undefined) | 166 to 168
45 | Cn1cc(-c2ccccc2)c(=O)c(-c2cccc(Cl)c2)c1 | 172
46 | NC(=O)C(=O)NC(C(=O)OC(c1ccccc1)c1ccccc1)c1ccco1 (centres undefined) | 168 to 170
47 | CC(=O)NCCc1nc(-c2csc(N=C(N)N)n2)cs1 | 226 to 227
48 | Nc1ccccc1C(=O)NCCN1CCC2(CC1)C(=O)NCN2c1ccc(F)cc1 | 195
49 | CNC(=N[N+](=O)[O-])N(Cc1cnc(Cl)s1)C(C)=O | 105 to 106
50 | c1cncc(CNC2=Nc3ccccc3Nc3ncccc32)c1 | 192 to 194
51 | CC(C)n1nc(-c2nc(C(N)=O)c(N)nc2Cl)ccc1=O | > 250
52 | CC1(C)CN(CC(=O)c2ccccc2)c2cc([N+](=O)[O-])ccc2O1 | 125 to 128
53 | CCN(CC)CCNc1nc2ccccc2n(-c2ccc(Cl)cc2)c1=O | 96 to 98
54 | COC(=O)C(=C(C)C)N1CC(NC(=O)OCc2ccccc2)C1=O (centres undefined) | 135 to 137
55 | CCNC(=O)Nc1ccc(-c2sc3c(c2CN(C)C(C)C)c(=O)n(-c2ccccc2)c(=O)n3Cc2c(F)cccc2F)cc1 | 208 to 210
56 | NC(N)=NC(=O)Cc1c(-c2ccccc2Cl)csc1-c1ccc(OCCc2cn[nH]c2)cc1 | 71 to 72
57 | O=C(NCCF)c1ccc(CCN2CC=C(c3c[nH]c(-c4ccc(F)cc4)c3-c3ccncc3)CC2)cc1 | 209 to 211

More lines, now with the values ahead:

Row | melting point [°C] | SMILES
58 | 60 | O=C(O)CCCCCCCCNC(=O)C1Cc2ccccc2N1S(=O)(=O)c1ccc(-c2cccc(C(F)(F)F)c2)cc1 (centres undefined)
59 | 158 to 160 | CC(=O)OCCOC(=O)C1=C(C)NC(C)=C([N+](=O)[O-])C1c1ccccc1Cl (centres undefined)
60 | 173 to 175 | COC(=O)C1CCc2oc3cc(OC)ccc3c2C1=O (centres undefined)
61 | 59 to 61 | CCOC(=O)/C=C/c1ccc(OS(=O)(=O)C(F)(F)F)c(Cl)c1
62 | 178 to 179 | CON=C(Cl)c1ccccc1S(=O)(=O)NC(=O)Nc1nc(C)cc(OC)n1
63 | 122 to 124 | CC1=C(C(=O)Nc2ccc(Cl)c(C(=O)OC(C)C)c2)SCCS1
64 | 232 | Nc1ccc(Nc2c(NCc3ccco3)cc(C(=O)O)cc2S(N)(=O)=O)cc1
65 | 170 to 172 | COc1cccc2c(=O)c3cc(F)ccc3oc12
66 | 94 to 97 | COc1cnc(CSc2nc3cc(OC(F)(F)F)ccc3[nH]2)c(C)c1OC
67 | 67 | CCOC(=O)c1cnc(Oc2ccccc2)s1
68 | 129 | COc1cc(C2(OC)CCOCC2)ccc1OCc1ccc2ccccc2c1
69 | 166 to 167 | COC(=O)c1c(N(CC(C)C)CC(C)C)cccc1S(=O)(=O)NC(=O)Nc1nc(OC)cc(OC)n1
70 | 82.5 to 84 | COc1cc2cc(OS(=O)(=O)C(F)(F)F)cnc2cc1OC
71 | 103 to 106 | COC(=O)C(C)(C)S(=O)(=O)N1CCC(c2ccc(Br)c(C)c2)CC1
72 | 150 to 160 | COc1ccc(NC(=O)c2ccc(F)c(F)c2)cc1NS(=O)(=O)c1cccc([N+](=O)[O-])c1
73 | 192 | CN(C1CCN(CCCC(F)(F)F)CC1)S(=O)(=O)c1ccc(Nc2nccc(Nc3ccc(F)c(F)c3)n2)cc1
74 | 209 to 211 | COc1cc2c(=O)n(CCCc3ccccc3)c3cc(OC)c(OC)cc3c2cc1OC
75 | 93 to 94 | COc1cccc(-n2cccn2)c1C#N
76 | 151 | CC(C)(C)OC(=O)NCC(N)c1c[nH]c2ccc(Br)cc12 (centres undefined)
77 | 127 to 130 | CN(C)Cc1cc2ccc(-c3nnc(CSCCOc4ccccc4)o3)cc2n1S(C)(=O)=O
78 | 168 to 170 | CS(=O)(=O)c1ccc(Oc2ccc(Cl)c(Cl)c2)nc1C#N

Row | melting point [°C] | SMILES
79 | 180 to 183 | COC(=O)C1=C(C)N=C(OC)N(C(=O)Oc2ccc([N+](=O)[O-])cc2)C1c1ccc2nonc2c1 (centres undefined)
80 | 139 to 140 | COC(=O)c1cc(SCc2ccccc2)c(Cc2ccccc2)c(S(N)(=O)=O)c1
81 | 200 to 201 | CCCCC(CC)C(=O)Nc1ccc2c(/C=C/C(=O)O)cn(Cc3ccc(C(=O)NS(=O)(=O)c4ccccc4)cc3OC)c2c1 (centres undefined)
82 | 182 to 183 | COc1cc(Nc2nccc(-c3ccc([N+](=O)[O-])s3)n2)cc(OC)c1OC
83 | 187 to 190 | COc1ccc(OC(=O)N2c3cc(Cl)ccc3NC(=O)[C@@H]2C)cc1
84 | 131 to 132 | CCOC(=O)Cc1nn(Cc2nc3cc(C(F)(F)F)ccc3s2)c(=O)c2ccccc12
85 | 178 to 181 | CONCc1nc2c(N)nc3ccccc3c2n1CC1(O)CCC1
86 | 165 to 166 | Cc1cccc(C(O)c2ccc(N)cc2)n1 (centres undefined)
87 | 208 to 210 | COc1cc(OC)c2c(=O)[nH]c(-c3ccc(OC)c(N4CCN(C(C)C)CC4)n3)nc2c1
88 | 107 to 109 | CS(=O)(=O)Nc1ccc(CNC(=O)c2cccnc2Oc2ccc(F)cc2)cc1
89 | 78 to 89 | CCN(CC)C(=O)c1cc(OC)cc(Oc2cccc(C(F)(F)F)c2)n1
90 | 104 to 105 | COc1cccc(C(=O)NCCNC(=O)OC(C)(C)C)n1
91 | 128 to 130 | COCCNc1cc(Cl)nc(-c2ccccc2)n1
92 | 305 to 309 | COc1cc2c(=O)c(C#N)c[nH]c2cc1[N+](=O)[O-]
93 | 132 to 134 | COc1ccc(CNc2nc(N3CCn4ccnc4C3)ncc2C(=O)NCC2CN(C)CCO2)cc1Cl (centres undefined)
94 | 87 to 88 | COc1ccc(C(=O)c2ccc(OCc3nc(-c4ccccc4)oc3C)cc2)c(OC(C(=O)O)C(C)C)c1 (centres undefined)
95 | 58 to 60 | COC(=O)N1CCc2onc(OC)c2C1
96 | 211 | CCCCNC(=S)Nc1nc2ccc(OC(F)(F)F)cc2s1
97 | 161 to 163 | CN(C)c1cccc2c(S(=O)(=O)Nc3ncc(Cl)cc3Cl)cccc12
98 | 213 to 214 | COc1ccc(Nc2nc(-c3ccncc3)cs2)nc1
99 | 226 to 228 | CC1COCc2nc3c(N)nc4ccc(OCC(=O)N5CCOCC5)cc4c3n21 (centres undefined)
